The source of these data is ChEMBL document CHEMBL1132921, “Analogues of the potent nonpolyglutamatable antifolate N(alpha)-(4-amino-4-deoxypteroyl)-N(delta)-hemiphthaloyl-L-ornithine (PT523) with modifications in the side chain, p-aminobenzoyl moiety, or 9,10-bridge: synthesis and in vitro antitumor activity” (J Med Chem, 2000).

pIC50: −log10 of the molar value.

This experiment concerns CCRF-CEM. Description: Growth inhibition of CCRF-CEM human leukemic lymphoblasts. Format: functional, cell-based.
A word on the pIC50: it is −log10 of the IC50, conventionally taken in molar units. A higher pIC50 goes with a small IC50. Regarding `CCC(Cc1cnc2nc(N)nc(N)c2n1)c1ccc(C(=O)NC(CCCNC(=O)c2ccccc2C(=O)O)C(=O)O)cc1` (centres undefined), the pIC50 was 8.92.

`Nc1nc(N)c2nc(CNc3ccc(C(=O)NC(CCSCNC(=O)c4ccccc4C(=O)O)C(=O)O)cc3)cnc2n1` (centres undefined) gave a pIC50 of 8.30. Compound `Nc1nc(N)c2nc(CCc3ccc(C(=O)NC(CCCNC(=O)c4ccccc4C(=O)O)C(=O)O)cc3)cnc2n1` (centres undefined) had a pIC50 of 9.28.

Take `CC(Cc1cnc2nc(N)nc(N)c2n1)c1ccc(C(=O)NC(CCCNC(=O)c2ccccc2C(=O)O)C(=O)O)cc1` (centres undefined): the negative-log IC50 (pIC50) is 9.20.

In the case of `Nc1nc(N)c2nc(CNc3ccc(C(=O)NC(CCCNC(=O)c4ccc(C(=O)O)cc4)C(=O)O)cc3)cnc2n1` (centres undefined), the pIC50 was 7.26. As for `Nc1nc(N)c2nc(CNc3ccc(C(=O)NC(CCCNC(=O)c4ccccc4C(=O)O)C(=O)O)c4ccccc34)cnc2n1` (centres undefined), the pIC50 is 8.92. Then `Nc1nc(N)c2nc(CNc3ccc(C(=O)NC(CCCNC(=O)c4cccc(C(=O)O)c4)C(=O)O)cc3)cnc2n1` (centres undefined), with 8.12; and `Nc1nc(N)c2nc(CNc3ccc(C(=O)NC(CCNC(=O)c4ccccc4C(=O)O)C(=O)O)cc3)cnc2n1` (centres undefined), with 8.26. Next, `CCC(Cc1cnc2nc(N)nc(N)c2n1)(C(=O)OC)c1ccc(C(=O)NC(CCCNC(=O)c2ccccc2C(=O)O)C(=O)O)cc1` (centres undefined): 7.27; `Nc1nc(N)c2nc(CNc3ccc(C(=O)NC(CSCNC(=O)c4ccccc4C(=O)O)C(=O)O)cc3)cnc2n1` (centres undefined): 8.36.

As to `Nc1nc(N)c2nc(CNc3ccc(C(=O)NC(CNC(=O)c4ccccc4C(=O)O)C(=O)O)cc3)cnc2n1` (centres undefined), the pIC50 is 8.29.

In the case of `Nc1nc(N)c2nc(CNc3ccc(C(=O)NC(CCCCNC(=O)c4ccccc4C(=O)O)C(=O)O)cc3)cnc2n1` (centres undefined), the negative logarithm of the IC50 (pIC50) was 8.54. On to `Nc1nc(N)c2nc(CNc3ccc(C(=O)N[C@@H](CCC(=O)O)C(=O)O)cc3)cnc2n1` [AMINOPTERIN], for which the pIC50 was 8.36. Take `CCC(Cc1cnc2nc(N)nc(N)c2n1)c1ccc(C(=O)N[C@@H](CCC(=O)O)C(=O)O)cc1` (some centres undefined) [EDATREXATE]: the pIC50 is 8.48.
